Data published in patent US12364703B2, “Homogeneous ophthalmic composition” (priority 2015, dated 2025).
Structures can show the parent of a compound that is named as a salt.

Assay: LCMS and standard curve analysis of the concentration of each active ingredient in solution
Format: physicochemical
Settings: three samples of solutions containing the three active ingredients; LCMS, standard curve
Protocol: Separate stock solutions of moxifloxacin HCI, dexamethasone, and sodium bromfenac were used as standards. Three different samples of solutions containing the three active ingredients, i.e., moxifloxacin HCI, dexamethasone, and sodium bromfenac were analyzed for the concentration of moxifloxacin in solution, the concentration of dexamethasone in solution, and the concentration of sodium bromfenac in solution.

**Q.** For `Nc1c(CC(=O)O)cccc1C(=O)c1ccc(Br)cc1` [bromfenac sodium], which “Concentration in Solution” value is on record?
**A.** The value was 0.0405 mg/mL.

**Q.** With `COc1c(N2C[C@@H]3CCCN[C@@H]3C2)c(F)cc2c(=O)c(C(=O)O)cn(C3CC3)c12` [moxifloxacin HCI, moxifloxacin hydrochloride] as the compound, how does the “Concentration in Solution” value read?
**A.** Its value is 5.458 mg/mL.
